# Laboratory results published in patent publication US11000033B2, “Ketone or oxime compound, and herbicide” (NISSAN CHEMICAL CORPORATION, priority 2014, dated 2021).
# Legend:
# Type in all cases: in vivo
# [1] = test system: Echinochloa oryzacola Vasing.; assay: Test Example 1: herbicidal activity, application before weed generation in submerged conditions (symbol A); settings: application herbicide amount 320 g/ha
# Procedure, shortened: (§1)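 Application before weed emergence: an aqueous dilution of the emulsion formulation was poured onto the surface of 4 cm-deep floodwater on the day of sowing. Effect was judged after 3 weeks (greenhouse, 25–30 °C).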
# Scirpus juncoides [2] = assay: Test Example 1: herbicidal activity, application before weed generation in submerged conditions (symbol B); settings: application herbicide amount 320 g/ha
# Procedure, shortened: as §1
# Monochoria vaginalis [3] = assay: Test Example 1: herbicidal activity, application before weed generation in submerged conditions (symbol C); settings: application herbicide amount 320 g/ha
# Procedure, shortened: as §1
# transplanted rice plant = assay: Test Example 1: effect on crop, application before weed generation in submerged conditions (symbol a); settings: application herbicide amount 320 g/ha
# Procedure, shortened: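 Rice at 2.5 leaf stage transplanted into submerged soil (4 cm depth) sown with three weed species; herbicide applied before weed emergence.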
# [4] = test system: Echinochloa oryzacola Vasing.; assay: Test Example 2: herbicidal activity, application during weed generation in submerged conditions (symbol A); settings: Table 23; application herbicide amount 320 g/ha; grade 0-5 by criteria of Test Example 1
# Procedure, shortened: (§2)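 Each pot contained alluvial soil under 4 cm of water with seeds of all three weeds sown together. Following growth at 25° C. to 30° C. to the one- to two-leaf stage, the floodwater received diluted emulsion at a predetermined amount; visual assessment followed at 3 weeks.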
# Scirpus juncoides [5] = assay: Test Example 2: herbicidal activity, application during weed generation in submerged conditions (symbol B); settings: Table 23; application herbicide amount 320 g/ha; grade 0-5 by criteria of Test Example 1
# Procedure, shortened: as §2
# Monochoria vaginalis [6] = assay: Test Example 2: herbicidal activity, application during weed generation in submerged conditions (symbol C); settings: Table 23; application herbicide amount 320 g/ha; grade 0-5 by criteria of Test Example 1
# Procedure, shortened: as §2
# [7] = test system: Echinochloa crus-galli var. crus-galli; assay: Test Example 3: herbicidal effect by foliage application, Wagner pot (symbol H); settings: application herbicide amount 320 g/ha
# Procedure, shortened: (§3)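 Seeds sown in alluvial soil kept under 0.1–0.5 cm water, greenhouse 25–30 °C; 14 d growth. Leaves treated by small sprayer with water-diluted emulsion at a predetermined rate. Effect graded by set scale, 3 weeks.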
# Leptochloa chinensis = assay: Test Example 3: herbicidal effect by foliage application, Wagner pot (symbol D); settings: application herbicide amount 320 g/ha
# Procedure, shortened: as §3
# Cyperus difformis = assay: Test Example 3: herbicidal effect by foliage application, Wagner pot (symbol E); settings: application herbicide amount 320 g/ha
# Procedure, shortened: as §3
# [8] = test system: directly sowed rice plant; assay: Test Example 3: effect on crop by foliage application, Wagner pot (symbol b); settings: application herbicide amount 320 g/ha
# Procedure, shortened: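 Alluvial soil in a 1/10000-are Wagner pot was flooded to a water depth of 0.1–0.5 cm. Echinochloa crus-galli var. crus-galli, Leptochloa chinensis, Cyperus difformis and rice were sown into it and grown in a greenhouse at 25–30 °C.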
# Digitaria ciliaris = assay: Test Example 5: herbicidal effect by foliage application, plastic box (symbol F); settings: 320 g/ha, 3 weeks after application
# Procedure, shortened: (§4)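 Greenhouse foliar test: seedlings at 14 days, grown 25° C. to 30° C. in sterilized diluvial soil; compound applied as an aqueous dilution of an emulsion; response read 3 weeks after spraying.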
# Setaria viridis = assay: Test Example 5: herbicidal effect by foliage application, plastic box (symbol G); settings: 320 g/ha, 3 weeks after application
# Procedure, shortened: as §4
# [9] = test system: Echinochloa crus-galli var. crus-galli; assay: Test Example 5: herbicidal effect by foliage application, plastic box (symbol H); settings: 320 g/ha, 3 weeks after application
# Procedure, shortened: as §4
# Avena fatua = assay: Test Example 5: herbicidal effect by foliage application, plastic box (symbol I); settings: 320 g/ha, 3 weeks after application
# Procedure, shortened: as §4
# Alopecurus myosuroides = assay: Test Example 5: herbicidal effect by foliage application, plastic box (symbol J); settings: 320 g/ha, 3 weeks after application
# Procedure, shortened: as §4
# Lolium multiflorum Lam. = assay: Test Example 5: herbicidal effect by foliage application, plastic box (symbol K); settings: 320 g/ha, 3 weeks after application
# Procedure, shortened: as §4
# Apera spica-venti = assay: Test Example 5: herbicidal effect by foliage application, plastic box (symbol L); settings: 320 g/ha, 3 weeks after application
# Procedure, shortened: as §4
# Abutilon theophrasti = assay: Test Example 5: herbicidal effect by foliage application, plastic box (symbol M); settings: 320 g/ha, 3 weeks after application
# Procedure, shortened: as §4
# Amaranthus retroflexus = assay: Test Example 5: herbicidal effect by foliage application, plastic box (symbol N); settings: 320 g/ha, 3 weeks after application
# Procedure, shortened: as §4
# Chenopodium album = assay: Test Example 5: herbicidal effect by foliage application, plastic box (symbol O); settings: 320 g/ha, 3 weeks after application
# Procedure, shortened: as §4
# Stellaria media = assay: Test Example 5: herbicidal effect by foliage application, plastic box (symbol P); settings: 320 g/ha, 3 weeks after application
# Procedure, shortened: as §4
# Galium spurium = assay: Test Example 5: herbicidal effect by foliage application, plastic box (symbol Q); settings: 320 g/ha, 3 weeks after application
# Procedure, shortened: as §4
# Veronica persica = assay: Test Example 5: herbicidal effect by foliage application, plastic box (symbol R); settings: 320 g/ha, 3 weeks after application
# Procedure, shortened: as §4
# corn = assay: Test Example 5: effect on crop by foliage application, plastic box (symbol c); settings: 320 g/ha, 3 weeks after application
# Procedure, shortened: (§5)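 A greenhouse held between 25° C. and 30° C. was used to grow plants sown spot-wise, beneath ~1.5 cm of soil, in boxes of sterilized diluvial soil.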
# soybean = assay: Test Example 5: effect on crop by foliage application, plastic box (symbol d); settings: 320 g/ha, 3 weeks after application
# Procedure, shortened: as §5
# rice plant = assay: Test Example 5: effect on crop by foliage application, plastic box (symbol b); settings: 320 g/ha, 3 weeks after application
# Procedure, shortened: as §5
# wheat = assay: Test Example 5: effect on crop by foliage application, plastic box (symbol e); settings: 320 g/ha, 3 weeks after application
# Procedure, shortened: as §5
# beet = assay: Test Example 5: effect on crop by foliage application, plastic box (symbol f); settings: 320 g/ha, 3 weeks after application
# Procedure, shortened: as §5
# rapeseed = assay: Test Example 5: effect on crop by foliage application, plastic box (symbol g); settings: 320 g/ha, 3 weeks after application
# Procedure, shortened: as §5
smiles,measurement,setting,value
CON=C(C)CC1CC(O)=C(c2c(C)cc(-c3ccc(SC)cc3)cc2C)C1=O (mixture of isomers) [6-030],"Herbicidal effect grade, A: Echinochloa oryzacola Vasing.",[1],3 (Herbicidal ratio of 40% or higher and lower than 70%)
same,"Herbicidal effect grade, B: Scirpus juncoides",Scirpus juncoides [2],0 (Herbicidal ratio of 5% or lower (almost no effect))
same,"Herbicidal effect grade, C: Monochoria vaginalis",Monochoria vaginalis [3],0 (Herbicidal ratio of 5% or lower (almost no effect))
same,"Effect grade on crop, a: transplanted rice plant",transplanted rice plant,2 (Herbicidal ratio of 20% or higher and lower than 40%)
same,"Herbicidal effect grade, A: Echinochloa oryzacola Vasing.",[4],2 (Herbicidal ratio of 20% or higher and lower than 40%)
same,"Herbicidal effect grade, B: Scirpus juncoides",Scirpus juncoides [5],0 (Herbicidal ratio of 5% or lower (almost no effect))
same,"Herbicidal effect grade, C: Monochoria vaginalis",Monochoria vaginalis [6],0 (Herbicidal ratio of 5% or lower (almost no effect))
same,"herbicidal effect on H (Echinochloa crus-galli var. crus-galli), grade 0-5",[7],4 (Herbicidal ratio of 70% or higher and lower than 90%)
same,"herbicidal effect on D (Leptochloa chinensis), grade 0-5",Leptochloa chinensis,5 (Herbicidal ratio of 90% or more (almost completely withered))
same,"herbicidal effect on E, grade 0-5",Cyperus difformis,0 (Herbicidal ratio of 5% or lower (almost no effect))
same,"effect on crop b (directly sowed rice plant), grade 0-5",[8],2 (Herbicidal ratio of 20% or higher and lower than 40%)
same,"F: Digitaria ciliaris, herbicidal effect grade",Digitaria ciliaris,4 (Herbicidal ratio of 70% or higher and lower than 90%)
same,"G: Setaria viridis, herbicidal effect grade",Setaria viridis,4 (Herbicidal ratio of 70% or higher and lower than 90%)
same,"H: Echinochloa crus-galli var. crus-galli, herbicidal effect grade",[9],1 (Herbicidal ratio of 5% or higher and lower than 20%)
same,"I: Avena fatua, herbicidal effect grade",Avena fatua,0 (Herbicidal ratio of 5% or lower (almost no effect))
same,"J: Alopecurus myosuroides, herbicidal effect grade",Alopecurus myosuroides,1 (Herbicidal ratio of 5% or higher and lower than 20%)
same,"K: Lolium multiflorum Lam., herbicidal effect grade",Lolium multiflorum Lam.,1 (Herbicidal ratio of 5% or higher and lower than 20%)
same,"L: Apera spica-venti, herbicidal effect grade",Apera spica-venti,0 (Herbicidal ratio of 5% or lower (almost no effect))
same,"M: Abutilon theophrasti, herbicidal effect grade",Abutilon theophrasti,0 (Herbicidal ratio of 5% or lower (almost no effect))
same,"N: Amaranthus retroflexus, herbicidal effect grade",Amaranthus retroflexus,0 (Herbicidal ratio of 5% or lower (almost no effect))
same,"O: Chenopodium album, herbicidal effect grade",Chenopodium album,0 (Herbicidal ratio of 5% or lower (almost no effect))
same,"P: Stellaria media, herbicidal effect grade",Stellaria media,0 (Herbicidal ratio of 5% or lower (almost no effect))
same,"Q: Galium spurium, herbicidal effect grade",Galium spurium,0 (Herbicidal ratio of 5% or lower (almost no effect))
same,"R: Veronica persica, herbicidal effect grade",Veronica persica,0 (Herbicidal ratio of 5% or lower (almost no effect))
same,"c: corn, effect on crop grade",corn,0 (Herbicidal ratio of 5% or lower (almost no effect))
same,"d: soybean, effect on crop grade",soybean,0 (Herbicidal ratio of 5% or lower (almost no effect))
same,"b: directly sowed rice plant, effect on crop grade",rice plant,1 (Herbicidal ratio of 5% or higher and lower than 20%)
same,"e: wheat, effect on crop grade",wheat,0 (Herbicidal ratio of 5% or lower (almost no effect))
same,"f: beet, effect on crop grade",beet,0 (Herbicidal ratio of 5% or lower (almost no effect))
same,"g: rapeseed, effect on crop grade",rapeseed,3 (Herbicidal ratio of 40% or higher and lower than 70%)
CON=C(C)CC1CC(OC(=O)N2CCOCC2)=C(c2c(C)cc(-c3ccc(Cl)cc3Cl)cc2C)C1=O (stereo not drawn) [6-090],"Herbicidal effect grade, A: Echinochloa oryzacola Vasing.",[1],5 (Herbicidal ratio of 90% or more (almost completely withered))
same,"Herbicidal effect grade, B: Scirpus juncoides",Scirpus juncoides [2],0 (Herbicidal ratio of 5% or lower (almost no effect))
same,"Herbicidal effect grade, C: Monochoria vaginalis",Monochoria vaginalis [3],0 (Herbicidal ratio of 5% or lower (almost no effect))
same,"Effect grade on crop, a: transplanted rice plant",transplanted rice plant,0 (Herbicidal ratio of 5% or lower (almost no effect))
same,"Herbicidal effect grade, A: Echinochloa oryzacola Vasing.",[4],3 (Herbicidal ratio of 40% or higher and lower than 70%)
same,"Herbicidal effect grade, B: Scirpus juncoides",Scirpus juncoides [5],0 (Herbicidal ratio of 5% or lower (almost no effect))
same,"Herbicidal effect grade, C: Monochoria vaginalis",Monochoria vaginalis [6],0 (Herbicidal ratio of 5% or lower (almost no effect))
same,"herbicidal effect on H (Echinochloa crus-galli var. crus-galli), grade 0-5",[7],0 (Herbicidal ratio of 5% or lower (almost no effect))
same,"herbicidal effect on D (Leptochloa chinensis), grade 0-5",Leptochloa chinensis,5 (Herbicidal ratio of 90% or more (almost completely withered))
same,"herbicidal effect on E, grade 0-5",Cyperus difformis,0 (Herbicidal ratio of 5% or lower (almost no effect))
same,"effect on crop b (directly sowed rice plant), grade 0-5",[8],0 (Herbicidal ratio of 5% or lower (almost no effect))
same,"F: Digitaria ciliaris, herbicidal effect (criteria of Test Example 1)",Digitaria ciliaris,5 (Herbicidal ratio of 90% or more (almost completely withered))
same,"G: Setaria viridis, herbicidal effect (criteria of Test Example 1)",Setaria viridis,5 (Herbicidal ratio of 90% or more (almost completely withered))
same,"H: Echinochloa crus-galli var. crus-galli, herbicidal effect (criteria of Test Example 1)",[9],4 (Herbicidal ratio of 70% or higher and lower than 90%)
same,"I: Avena fatua, herbicidal effect (criteria of Test Example 1)",Avena fatua,4 (Herbicidal ratio of 70% or higher and lower than 90%)
same,"J: Alopecurus myosuroides, herbicidal effect (criteria of Test Example 1)",Alopecurus myosuroides,3 (Herbicidal ratio of 40% or higher and lower than 70%)
same,"K: Lolium multiflorum Lam., herbicidal effect (criteria of Test Example 1)",Lolium multiflorum Lam.,4 (Herbicidal ratio of 70% or higher and lower than 90%)
same,"L: Apera spica-venti, herbicidal effect (criteria of Test Example 1)",Apera spica-venti,2 (Herbicidal ratio of 20% or higher and lower than 40%)
same,"M: Abutilon theophrasti, herbicidal effect (criteria of Test Example 1)",Abutilon theophrasti,0 (Herbicidal ratio of 5% or lower (almost no effect))
same,"N: Amaranthus retroflexus, herbicidal effect (criteria of Test Example 1)",Amaranthus retroflexus,0 (Herbicidal ratio of 5% or lower (almost no effect))
same,"O: Chenopodium album, herbicidal effect (criteria of Test Example 1)",Chenopodium album,0 (Herbicidal ratio of 5% or lower (almost no effect))
same,"P: Stellaria media, herbicidal effect (criteria of Test Example 1)",Stellaria media,0 (Herbicidal ratio of 5% or lower (almost no effect))
same,"Q: Galium spurium, herbicidal effect (criteria of Test Example 1)",Galium spurium,0 (Herbicidal ratio of 5% or lower (almost no effect))
same,"R: Veronica persica, herbicidal effect (criteria of Test Example 1)",Veronica persica,0 (Herbicidal ratio of 5% or lower (almost no effect))
same,"c: corn, effect on crop (criteria of Test Example 1)",corn,2 (Herbicidal ratio of 20% or higher and lower than 40%)
same,"d: soybean, effect on crop (criteria of Test Example 1)",soybean,0 (Herbicidal ratio of 5% or lower (almost no effect))
same,"b: directly sowed rice plant, effect on crop (criteria of Test Example 1)",rice plant,1 (Herbicidal ratio of 5% or higher and lower than 20%)
same,"e: wheat, effect on crop (criteria of Test Example 1)",wheat,0 (Herbicidal ratio of 5% or lower (almost no effect))
same,"f: beet, effect on crop (criteria of Test Example 1)",beet,0 (Herbicidal ratio of 5% or lower (almost no effect))
same,"g: rapeseed, effect on crop (criteria of Test Example 1)",rapeseed,4 (Herbicidal ratio of 70% or higher and lower than 90%)
